According to patent publication US8420642B2, “Pyridine derivatives useful as glucokinase activators” (Merck Patent GmbH, priority 2007, dated 2013):

Tests used:
[1] = target: T1, glucokinase (GK), human enzyme (Homo sapiens, UniProt P35557); test: Glucokinase Activation Screening Assay (coupled enzyme assay with PK/LDH, NADH decline at 340 nm); assay type: biochemical; conditions: for fold activation (human): relative to control incubation with 2 mM glucose; for EC50: 2 mM glucose
T1 sequence (P35557 1-465): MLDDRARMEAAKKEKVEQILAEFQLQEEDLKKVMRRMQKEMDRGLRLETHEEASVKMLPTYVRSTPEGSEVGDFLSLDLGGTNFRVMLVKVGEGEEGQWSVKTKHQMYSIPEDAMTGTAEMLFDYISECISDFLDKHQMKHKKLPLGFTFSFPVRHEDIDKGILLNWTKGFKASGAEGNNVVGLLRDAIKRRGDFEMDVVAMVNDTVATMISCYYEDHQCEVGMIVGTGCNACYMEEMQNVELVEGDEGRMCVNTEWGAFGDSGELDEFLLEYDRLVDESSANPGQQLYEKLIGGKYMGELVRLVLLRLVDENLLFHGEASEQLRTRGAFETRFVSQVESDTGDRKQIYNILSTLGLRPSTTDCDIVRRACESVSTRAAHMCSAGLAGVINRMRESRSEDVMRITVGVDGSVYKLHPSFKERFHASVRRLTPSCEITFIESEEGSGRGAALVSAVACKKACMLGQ
Experimental: Glucokinase Activation Screening Assay
GK activity (human or rat enzyme) is measured by an coupled enzyme assay using pyruvate kinase (PK) and lactate dehydrogenase (LDH) as coupling enzymes. GK activity is calculated from the decline in NADH monitored photometrically with a microtiter plate (MTP) reader at 340 nm. For screening purposes, the GK assay is routinely run in a 384-MTP format, in a total volume of 33 μl/well. 10 μl of the ATP-regeneration solution (in HEPES-buffer*, pH 7.0, 6.73 U/ml pyruvate kinase, 6.8 U/ml lactate dehydrogenase) and 10 μl of the glucokinase-/glucose solution (15 μg/ml, 6.6 mM glucose in HEPES-buffer*, pH 7.0; the concentration of the glucose stock-solution was 660 mM in Millipore H2O) were mixed together with 3 μl of a 10% DMSO solution (in HEPES-buffer*, pH 7.0) containing 3.3-fold the amounts of the compounds to achieve final compound concentrations in the range between 1 nM to 30 μM (sometimes 300 μM) in the assay solution (s. below). The solutions were mixed for 5 sec, and after a centrifugation at 243×g for 5 min, the solutions were preincubated for 25 min at room temperature.
The reaction was started by the addition of 10 μl of the NADH-/ATP-solution (4.29 mM NADH, 4.95 mM ATP, in HEPES-buffer*). The MTP was shaken for 5 sec., and then, the absorbance at 340 nm was monitored continuously in a MTP-reader (TECAN Spectro fluor plus) for the next 27 min (with a MTP-cycling time of 199 sec.). The final concentrations of the various components were as follows: 49.5 mM Hepes, pH 7.0, 1.49 mM PEP, 1.3 mM NADH, 49.5 mM KCl, 4.96 mM MgCl2, 1.5 mM Mg-ATP, 1.98 mM DTT, 2.04 U/ml pyruvate kinase, 2.06 U/ml lactate-dehydrogenase, 0.91% DMSO, 0.15 μg/well glucokinase, and test compounds in the range between 1 nM and 300 μM.
The change in the optical density (ΔOD340 nm) in the presence of the compound was expressed relative to the ΔOD340 nm, ctrl of the control incubation (in the presence of 2 mM glucose and 0.91% DMSO), taking into account the optical density of the blank sample (incubation in the absence of 2 mM glucose). For the determination of the half maximal effective concentration (EC50), the %−Ctrl-values were plotted in a semi-logarithmic graph against the conc. of the compound of interest. The data points were fitted to a sigmoid curve function (f(x)=((%−Ctrlmax%−Ctrlmin)/(1−(EC50/x**^n(Hill)))+%−Ctrlmin)) by a non-linear regression analysis.
* Hepes-buffer (50 mM Hepes, pH 7.0, 5 mM MgCl2, 50 mM KCl, 1.5 mM PEP, 0.1% BSA). DTT was added to the Hepes-buffer from a 200× stock solution (in Millipore H2O) freshly each day. The final concentration of DTT in the Hepes-buffer is 2 mM.

melting point	fold activation (human) [1]	EC50 [1]	SMILES
241.5 to 242.6 °C	D (fold activation: 1.2-5 μM = D)		Cc1csc(Nc2ccc(Br)cn2)n1 [A1, (5-bromo-pyridine-2-yl)-(4-methyl-thiazole-2-yl)-amine]
	D (fold activation: 1.2-5 μM = D)	1 to 10 µM	BrCc1csc(Nc2ccc(Br)cn2)n1 [A2, (4-bromomethyl-thiazole-2-yl)-(5-bromo-pyridine-2-yl)-amine]
	D (fold activation: 1.2-5 μM = D)	1 to 10 µM	Brc1ccc(Nc2nc(Cn3ccnc3)cs2)nc1 [A3, (5-bromo-pyridine-2-yl)-(4-imidazole-1-ylmethyl-thiazole-2-yl)-amine]
299.8 to 300.8 °C	D (fold activation: 1.2-5 μM = D)		CCOC(=O)c1csc(Nc2ccc(Br)cn2)n1 [A4, 2-(5-bromo-pyridine-2-ylamino)-thiazole-4-carboxylic acid ethyl ester]
200.9 to 201.6 °C	D (fold activation: 1.2-5 μM = D)	1 to 10 µM	CC(=O)OCc1csc(Nc2ccc(Br)cn2)n1 [A5, acetic acid 2-(5-bromo-pyridine-2-ylamino)-thiazole-4-ylmethyl ester]
207 to 209 °C	D (fold activation: 1.2-5 μM = D)		OCc1csc(Nc2ccc(Br)cn2)n1 [A6, [2-(5-bromo-pyridine-2-ylamino)-thiazole-4-yl]-methanol]
	D (fold activation: 1.2-5 μM = D)	> 10 µM	NCCSCc1csc(Nc2ccc(Br)cn2)n1 [A7, [4-(2-amino-ethylsulfanylmethyl)-thiazole-2-yl]-(5-bromopyridine-2-yl)-amine]
161.4 to 162.4 °C	D (fold activation: 1.2-5 μM = D)	> 10 µM	c1ccc(Oc2ccc(Nc3nccs3)nc2)cc1 [A8, (5-phenoxy-pyridine-2-yl)-thiazole-2-yl-amine]
158.5 to 160.5 °C	D (fold activation: 1.2-5 μM = D)	> 10 µM	CC(=O)OCc1csc(Nc2ccc(Oc3ccccc3)cn2)n1 [A9, acetic acid 2-(5-phenoxy-pyridine-2-ylamino)-thiazole-4-ylmethyl ester]
130 to 131 °C	E (5-10 μM = E)	1 to 10 µM	OCc1csc(Nc2ccc(Oc3ccccc3)cn2)n1 [A10, [2-(5-phenoxy-pyridine-2-ylamino)-thiazole-4-yl]-methanol]
	D (fold activation: 1.2-5 μM = D)	> 10 µM	c1ccc(Sc2ccc(Nc3nccs3)nc2)cc1 [A12, (5-phenylsulfanyl-pyridine-2-yl)-thiazole-2-yl-amine]
	D (fold activation: 1.2-5 μM = D)		[O-][S+](c1ccccc1)c1ccc(Nc2nccs2)nc1 (centres unmarked) [A13, (5-phenylsulfinyl-pyridine-2-yl)-thiazole-2-yl-amine]
	D (fold activation: 1.2-5 μM = D)	> 10 µM	O=S(=O)(c1ccccc1)c1ccc(Nc2nccs2)nc1 [A14, (5-phenylsulfonyl-pyridine-2-yl)-thiazole-2-yl-amine]
140.6 to 140.9 °C	E (5-10 μM = E)	1 to 10 µM	COCCOc1cc(Oc2ccccc2)cnc1Nc1nccs1 [A20, [3-(2-methoxy-ethoxy)-5-phenoxy-pyridine-2-yl]-thiazole-2-yl-amine]
	E (5-10 μM = E)	0.01 to 1 µM	c1ccc(Oc2cnc(Nc3nccs3)c(OC3CCCC3)c2)cc1 [A21, (3-cyclopentyloxy-5-phenoxy-pyridine-2-yl)-thiazole-2-yl-amine]
	D (fold activation: 1.2-5 μM = D)		CCCOc1ccc(Nc2ccn(C)n2)nc1 [A23, (1-methyl-1H-pyrazole-3-yl)-(5-propoxy-pyridine-2-yl)-amine]
	E (5-10 μM = E)	1 to 10 µM	COCC(C)Oc1cc(Oc2ccccc2)cnc1Nc1nccs1 (centres unmarked) [A28, [3-(2-Methoxy-1-methyl-ethoxy)-5-phenoxy-pyridine-2-yl]-thiazole-2-yl-amine]
	D (fold activation: 1.2-5 μM = D)	0.01 to 1 µM	c1ccc(Oc2cnc(Nc3nccs3)c(OCC3CCCC3)c2)cc1 [A29, (3-cyclopentylmethoxy-5-phenoxy-pyridine-2-yl)-thiazole-2-yl-amine]
	D (fold activation: 1.2-5 μM = D)		c1ccc(COc2ccc(Nc3nccs3)nc2)cc1 [A30, (5-benzyloxy-pyridine-2-yl)-thiazole-2-yl-amine]
	E (5-10 μM = E)		COCCOc1cc(Oc2cccnc2)cnc1Nc1nccs1 [A31, [3-(2-methoxy-ethoxy)-5-(pyridine-3-yloxy)-pyridine-2-yl]-thiazole-2-yl-amine]
	E (5-10 μM = E)	1 to 10 µM	COCCOc1cc(Oc2ccc(S(C)(=O)=O)cc2)cnc1Nc1nccs1 [A32, [5-(4-methanesulfonyl-phenoxy)-3-(2-methoxy-ethoxy)pyridine-2-yl]-thiazole-2-yl-amine]
	E (5-10 μM = E)		CS(=O)(=O)c1ccc(Oc2ccc(Nc3ccccn3)nc2)cc1 [A94]
	D (fold activation: 1.2-5 μM = D)		COCCOc1cc(Oc2ccccc2)cnc1Nc1cnccn1 [A95]
	D (fold activation: 1.2-5 μM = D)		COCCOc1cc(Oc2ccccc2)cnc1Nc1ccccn1 [A96]
	E (5-10 μM = E)		COCCOc1cc(Oc2ccccc2)cnc1Nc1ccn(C)n1 [A97]
